One assay deals with mGlu2 (Rattus norvegicus (Rat), UniProt P31421). The experiment in a line: mGlu2 GIRK thallium flux assay.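 On all read-outs here: Cell-based assay, rate of fluorescence rise right after thallium plus agonist addition read on a kinetic imaging plate reader, normalized to vehicle and maximal agonist control.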 The settings on record: for Emax: read-out: mGlu2 PAM Max; for EC50: read-out: mGlu2 PAM EC50, test compound, then EC20 glutamate […] later in the presence of thallium.
A further assay has as its target mGlu3 (Rattus norvegicus (Rat), UniProt P31422). The experiment in a line: mGlu3 GIRK thallium flux assay.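 On all read-outs here: kinetic fluorescence slope read shortly after thallium plus agonist addition, scaled between vehicle and maximal agonist control.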 The settings on record: for Emax: read-out: mGlu3 PAM Max; for EC50: read-out: mGlu3 PAM EC50, test compound, then EC20 glutamate […] later in the presence of thallium.
Setting [1] is: PAM mode, mean ± SEM, at least three experiments.

For orientation: EC50 means the midpoint of the concentration-response curve.

Sequence of mGlu3 (P31422 23-879): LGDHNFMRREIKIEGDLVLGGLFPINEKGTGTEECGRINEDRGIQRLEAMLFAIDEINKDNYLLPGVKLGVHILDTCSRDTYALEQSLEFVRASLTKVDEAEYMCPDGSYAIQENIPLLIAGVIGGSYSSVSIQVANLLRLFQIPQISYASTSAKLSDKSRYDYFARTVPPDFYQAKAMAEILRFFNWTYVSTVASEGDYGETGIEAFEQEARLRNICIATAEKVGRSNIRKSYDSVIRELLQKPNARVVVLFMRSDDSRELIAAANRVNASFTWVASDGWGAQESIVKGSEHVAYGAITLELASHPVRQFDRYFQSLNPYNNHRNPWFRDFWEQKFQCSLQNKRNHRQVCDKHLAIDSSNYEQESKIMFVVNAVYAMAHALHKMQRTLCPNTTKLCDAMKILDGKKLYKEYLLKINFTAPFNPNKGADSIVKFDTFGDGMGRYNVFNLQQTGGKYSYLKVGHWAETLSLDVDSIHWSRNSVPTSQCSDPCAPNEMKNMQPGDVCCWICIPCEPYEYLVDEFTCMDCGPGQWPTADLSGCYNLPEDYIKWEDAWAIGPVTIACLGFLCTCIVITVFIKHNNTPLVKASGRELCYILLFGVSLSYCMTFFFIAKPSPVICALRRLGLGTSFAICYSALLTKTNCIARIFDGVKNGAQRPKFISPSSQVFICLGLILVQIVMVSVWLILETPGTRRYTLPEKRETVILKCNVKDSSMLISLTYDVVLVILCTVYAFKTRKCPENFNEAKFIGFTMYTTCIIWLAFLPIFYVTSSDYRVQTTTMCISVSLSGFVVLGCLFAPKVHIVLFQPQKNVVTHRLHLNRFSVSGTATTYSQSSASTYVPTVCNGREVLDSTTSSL
Sequence of mGlu2 (P31421 19-872): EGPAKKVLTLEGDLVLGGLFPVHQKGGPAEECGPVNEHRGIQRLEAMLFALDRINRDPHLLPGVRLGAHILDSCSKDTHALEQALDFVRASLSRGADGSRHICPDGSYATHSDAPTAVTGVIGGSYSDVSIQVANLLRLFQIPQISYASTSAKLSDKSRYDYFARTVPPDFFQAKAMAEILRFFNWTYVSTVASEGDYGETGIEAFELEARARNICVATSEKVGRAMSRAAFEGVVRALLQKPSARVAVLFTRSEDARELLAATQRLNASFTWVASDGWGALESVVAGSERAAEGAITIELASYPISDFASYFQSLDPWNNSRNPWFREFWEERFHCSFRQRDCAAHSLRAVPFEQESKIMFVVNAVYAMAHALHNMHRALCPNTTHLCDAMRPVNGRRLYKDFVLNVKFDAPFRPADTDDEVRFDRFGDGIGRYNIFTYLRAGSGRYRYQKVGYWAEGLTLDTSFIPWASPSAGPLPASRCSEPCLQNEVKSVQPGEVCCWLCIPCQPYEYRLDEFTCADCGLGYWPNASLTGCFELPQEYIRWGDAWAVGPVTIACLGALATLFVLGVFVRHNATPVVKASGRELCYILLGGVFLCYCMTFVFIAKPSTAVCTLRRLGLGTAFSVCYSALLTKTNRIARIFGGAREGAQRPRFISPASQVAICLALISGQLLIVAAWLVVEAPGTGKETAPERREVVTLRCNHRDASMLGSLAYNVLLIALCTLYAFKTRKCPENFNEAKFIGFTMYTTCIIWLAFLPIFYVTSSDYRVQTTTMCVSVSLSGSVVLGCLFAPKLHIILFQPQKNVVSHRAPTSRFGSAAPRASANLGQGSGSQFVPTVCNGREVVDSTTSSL

For `COc1ccc(C(=O)Nc2ccccc2)cc1OCCCCOc1ccc(C(=O)CC(C)(C)C)c(O)c1C` [compound 104, 3-(4-(4-(3,3-Dimethylbutanoyl)-3-hydroxy-2-methylphenoxy)butoxy)-4-methoxy-N-phenylbenzamide], the Emax at mGlu2 was 23.1 ± 1.4%; on mGlu3, 27 ± 3.4%.
For `COc1ccc(C(=O)N2CCNCC2)cc1OCCCCOc1ccc(C(=O)CC(C)(C)C)c(O)c1C` [compound 105, 1-(2-Hydroxy-4-(4-(2-methoxy-5-(piperazine-1-carbonyl)phenoxy)butoxy)-3-methylphenyl)-3,3-dimethylbutan-1-one], the half-maximal effective concentration (EC50) at mGlu2 (setting [1]) was more than 10000 nM; on mGlu3 (PAM mode, mean ± SEM) it was more than 10000 nM. Besides, the Emax was found to be 67.4 ± 1.9% on mGlu2 and 49.7 ± 3.9% on mGlu3.
Turning to `Cc1c(OCc2ccnc(-c3cccc(C(=O)O)c3)c2)ccc(C(=O)CC(C)(C)C)c1O` [compound 149, 3-(4-((4-(3,3-Dimethylbutanoyl)-3-hydroxy-2-methylphenoxy)methyl)pyridin-2-yl)benzoic acid], the EC50 was determined as 230 ± 2 nM on mGlu2 (setting [1]) and 203 ± 1 nM at mGlu3 (PAM mode, mean ± SEM). Moreover, the values for the Emax at mGlu2 and on mGlu3 were 108 ± 1.2% and 112 ± 3.8%, respectively.
On to `COc1ccc(C(=O)Nc2ccccn2)cc1OCCCCOc1ccc(C(=O)CC(C)(C)C)c(O)c1C` [compound 106, 3-(4-(4-(3,3-Dimethylbutanoyl)-3-hydroxy-2-methylphenoxy)butoxy)-4-methoxy-N-(pyridin-2-yl)benzamide], for which the figures for the Emax on mGlu2 and on mGlu3 were 74.8 ± 5.9% and 97.4 ± 9.4%, respectively.
With `Cc1c(OCc2cccc(-c3cccc(-c4noc(=O)[nH]4)c3)c2)ccc(C(=O)CC(C)(C)C)c1O` [compound 157, 3-(3′-((4-(3,3-Dimethylbutanoyl)-3-hydroxy-2-methylphenoxy)methyl)-[1,1′-biphenyl]-3-yl)-1,2,4-oxadiazol-5(4H)-one], the Emax on mGlu2 was determined as 111 ± 6.6%; at mGlu3 it was 105 ± 2.8%.
Consider `Cc1c(OCc2cccc(-c3ccc(O)c(C(=O)O)c3)c2)ccc(C(=O)CC(C)(C)C)c1O` [compound 144, 3′-((4-(3,3-dimethylbutanoyl)-3-hydroxy-2-methylphenoxy)methyl)-4-hydroxy-[1,1′-biphenyl]-3-carboxylic acid], for which the EC50 at mGlu2 (setting [1]) is 232 ± 16 nM; on mGlu3 (PAM mode, mean ± SEM), 701 ± 176 nM. For the same compound, the Emax was determined as 59.6 ± 4% at mGlu2 and 46.9 ± 5.6% at mGlu3.
Consider `Cc1c(OCCCCSc2ccccn2)ccc(C(=O)CC(C)C)c1O` [Compound 184], for which the EC50 was more than 10000 nM at mGlu2 (setting [1]) and more than 30000 nM on mGlu3 (PAM mode, mean ± SEM).
Take `Cc1c(OCc2nnc(-c3cccc(C(=O)O)c3)s2)ccc(C(=O)CC(C)(C)C)c1O` [compound 165, 3-(5-((4-(3,3-Dimethylbutanoyl)-3-hydroxy-2-methylphenoxy)methyl)-1,3,4-thiadiazol-2-yl)benzoic acid]: the EC50 at mGlu2 (setting [1]) turned out to be 1658 ± 8 nM; at mGlu3 (PAM mode, mean ± SEM), 1410 ± 34 nM. Further, the results for the Emax at mGlu2 and at mGlu3 were 85.6 ± 1.3% and 95 ± 2.5%, respectively.
As for `COc1ccc(C(=O)N2CCN(S(C)(=O)=O)CC2)cc1OCCCCOc1ccc(C(=O)CC(C)(C)C)c(O)c1C` [compound 107, 1-{2-Hydroxy-4-[4-(2-methoxy-5-{[4-(methylsulfonyl)piperazinyl]carbonyl}phenoxy)butoxy]-3-methylphenyl}-3,3-dimethylbutan-1-one], the “mGlu2 PAM Max” value at mGlu2 (PAM mode, % Glutamate Max, mean ± SEM, at least three experiments) is 22.1 ± 1.1%. Besides, the EC50 at mGlu2 (setting [1]) is more than 30000 nM; on mGlu3 (PAM mode, mean ± SEM), more than 30000 nM. Besides, the “mGlu3 PAM Max” value on mGlu3 (PAM mode, % Glutamate Max, mean ± SEM) came to 22.9 ± 1.5%.
Take `Cc1c(OCc2cccc(-c3occc3C(=O)O)c2)ccc(C(=O)CC(C)(C)C)c1O` [Compound 178, 2-(3-((4-(3,3-Dimethylbutanoyl)-3-hydroxy-2-methylphenoxy)methyl)phenyl)furan-3-carboxylic acid]: the EC50 on mGlu2 (setting [1]) came to 409 ± 105 nM; at mGlu3 (PAM mode, mean ± SEM), 2870 ± 1120 nM. The Emax on mGlu2 worked out at 81.4 ± 10.1%; at mGlu3, 67.7 ± 11.7%.

Values taken from patent US10099993B2, “Metabotropic glutamate receptor positive allosteric modulators (PAMS) and uses thereof” (Sanford-Burnham Medical Research Institute, priority 2014, dated 2018).
